The test system of data set [1] is clubroot resting spores. Description: Clubroot resting spore mortality by Evans blue staining (Example 5). Particulars: all concentrations above 1.5%.
In data set [2] the test system is clubroot spores. Description: Clubroot resting spore mortality by Evans blue staining (Example 2). The conditions noted are these: positive control, 2% concentration.
The subject of data set [3] is clubroot resting spores. Nature of the data set: Clubroot resting spore mortality by Evans blue staining, separate test with AES-100. Particulars: all concentrations above 1.5%.
Data set [4] relates to seeds. Nature of the data set: Seed germination in soils saturated with product. Particulars: soils saturated with 2% solution.

Take `OCl` [sodium hypochlorite]: the “mortality of clubroot resting spores” value in data set [1] and in data set [3] was 100% in each case. Moreover, in data set [2], the resting spore mortality turned out to be 100%. In addition, the seed germination result in data set [4] was “no seeds germinated”.

The record behind these values is patent US12532882B2, “Biocide composition and methods of use” (priority 2017, dated 2026).
